From PMC7038240 (Antimicrobial Agents and Chemotherapy, 2020) come the findings set out here.

Broadly, the Ki is the equilibrium dissociation constant of an inhibitor or competing ligand from its target. Read a high Ki as lower affinity. As usually defined, the inhibition is the share of the control response that was lost under treatment. A high value points to strong suppression. Usually koff stands for the rate constant with which the complex falls apart. A low value points to a long-lived complex.

Like-named read-outs stand apart in the source and are kept apart here.

Data set [1] addresses SHV-5 (Klebsiella pneumoniae, UniProt P0A3M1). Kind of data set: Ki* determination, cefotaxime substrate.
Procedure: (§5) Pseudo-first-order rate constants of enzyme inactivation (kobs) were determined in the presence of various inhibitor concentrations by fitting equation 2 to the time courses.(2) P=Vst+(V0−Vs)(1−e^−kt)/k where P is product, Vs is rate at steady state, t is time, V0 is initial velocity, and k is rate of inactivation. A plot of kobs versus the inhibitor concentrations generated a linear plot with a slope of (k2/Ki) and a y intercept of k−2 (equation 3). The reported values were corrected for the substrate concentration and the Km for each substrate-enzyme combination, as defined by the 1 + ([S]/Km) term in equation 4, where S is the substrate concentration, used to obtain the second-order rate constant k2/Ki and the off rate (k−2). The error values reported are standard errors from the fit.(3) kobs=k−2+(k2/Ki)[I]/[1+([S]/Km)]
The target of data set [2] is T1, P99 AmpC (Enterobacter cloacae, UniProt P05364). Briefly: biochemical.
T1 sequence (P05364 21-381): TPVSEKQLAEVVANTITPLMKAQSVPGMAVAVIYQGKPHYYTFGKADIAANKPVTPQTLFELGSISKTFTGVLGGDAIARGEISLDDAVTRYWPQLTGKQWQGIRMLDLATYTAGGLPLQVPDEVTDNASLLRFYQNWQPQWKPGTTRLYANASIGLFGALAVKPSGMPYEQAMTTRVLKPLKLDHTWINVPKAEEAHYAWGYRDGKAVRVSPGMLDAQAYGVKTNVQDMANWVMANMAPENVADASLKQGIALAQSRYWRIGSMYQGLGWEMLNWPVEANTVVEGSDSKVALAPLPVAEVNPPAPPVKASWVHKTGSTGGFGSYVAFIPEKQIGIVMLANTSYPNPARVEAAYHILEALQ
Procedure: (§6) A reversible two-step inhibition model was fit to the data.
as §5
(§7) The percentage of enzyme activity at each assay point was determined by comparison to the activity of the enzyme in the absence of inhibitor, and the recovery of enzymatic activity was fit to a single exponential with the associated standard deviation.
Data set [3] concerns the target VIM-2 (Escherichia coli, UniProt Q5U7L7). Briefly: Steady-state competitive inhibition, nitrocefin substrate.
Data set [4] concerns DrugMatrixScreen panel of pharmacological targets. Briefly: DrugMatrixScreen panel (binding, enzymatic, uptake assays; Eurofins/Panlabs). The note with it: 100 μM.
The target in data set [5] is T2, KPC-2 (Klebsiella pneumoniae, UniProt Q9F663). Briefly: biochemical.
T2 sequence (Q9F663 25-293, looked up, species assumed): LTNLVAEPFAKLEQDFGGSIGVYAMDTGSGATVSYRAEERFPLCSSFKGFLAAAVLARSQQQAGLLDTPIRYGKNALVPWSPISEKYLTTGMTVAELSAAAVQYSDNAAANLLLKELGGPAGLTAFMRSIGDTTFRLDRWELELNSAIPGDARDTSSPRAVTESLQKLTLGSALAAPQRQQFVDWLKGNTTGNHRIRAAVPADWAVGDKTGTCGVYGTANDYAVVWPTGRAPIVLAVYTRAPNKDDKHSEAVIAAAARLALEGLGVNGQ
Procedure: as §6, §5, §7
The target of data set [6] is T1, P99 AmpC. The note with it: half-life of active-site occupancy.
Procedure: as §6, §5, §7
Data set [7] has as its system Enterobacterales clinical isolates. Briefly: MIC distributions in panels of clinical isolates (MIC50, MIC90, % susceptible). The class given is cell-based. The protocol: (§1) The antibacterial activity of the cephalosporins alone was included to ascertain the level of potentiation by the partnered BLI. BLIs were tested at a fixed concentration of 4 μg/ml in all combinations except cefepime-tazobactam, where tazobactam was fixed at a concentration of 8 μg/ml ([38]).
(§2) The in vitro antibacterial activity of the β-lactams alone or in combination with the BLIs was determined in cation-adjusted Mueller-Hinton broth (CAMHB) microdilution assays according to CLSI recommendations ([51]). […] The inocula for the broth microdilution assays were prepared by the broth culture method ([51]).

In data set [8] the target is IMP-1 (Serratia marcescens, UniProt P52699). Briefly: Inhibition assay, nitrocefin substrate. The note with it: class B.
IMP-1, sequence (P52699 19-246 limits assumed): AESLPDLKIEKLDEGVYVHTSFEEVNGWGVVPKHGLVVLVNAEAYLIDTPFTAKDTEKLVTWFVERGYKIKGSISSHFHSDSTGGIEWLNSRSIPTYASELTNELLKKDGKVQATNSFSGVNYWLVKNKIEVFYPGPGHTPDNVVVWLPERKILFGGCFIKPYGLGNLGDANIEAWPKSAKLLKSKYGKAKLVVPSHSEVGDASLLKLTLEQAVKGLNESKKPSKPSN
For data set [9], the target named is OXA-48 (Klebsiella pneumoniae, UniProt Q6XEC0). Kind of data set: Ki* determination, imipenem substrate.
OXA-48, sequence (Q6XEC0 23-265, looked up, species assumed): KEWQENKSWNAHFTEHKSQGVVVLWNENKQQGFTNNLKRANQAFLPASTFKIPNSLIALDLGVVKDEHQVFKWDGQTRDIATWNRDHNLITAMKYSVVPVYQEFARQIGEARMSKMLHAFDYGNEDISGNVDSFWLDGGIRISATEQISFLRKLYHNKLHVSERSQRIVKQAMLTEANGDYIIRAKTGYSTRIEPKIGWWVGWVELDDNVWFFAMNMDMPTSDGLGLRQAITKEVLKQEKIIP
Procedure: as §5
The subject of data set [10] is E. coli. Kind of data set: microbe, parasite or virus in culture. The class given is cell-based. The note with it: Escherichia coli, read-out: MIC. An excerpt:
(§3) The antibacterial activity of cefepime-taniborbactam was compared to that of ceftazidime-avibactam, ceftolozane-tazobactam, and cefepime-tazobactam against a diverse panel of Enterobacterales and P. aeruginosa clinical isolates with defined β-lactamase subtypes (see Table S1 in the supplemental material). IMP-producing strains were excluded, as none of the BLI-protected cephalosporins inhibited IMP sufficiently to provide a clinically relevant rescue of the partner β-lactam, a characteristic also shared by approved BLI-protected carbapenems (meropenem-vaborbactam and imipenem-relebactam). […] The antibacterial activity of the cephalosporins alone was included to ascertain the level of potentiation by the partnered BLI. BLIs were tested at a fixed concentration of 4 μg/ml in all combinations except cefepime-tazobactam, where tazobactam was fixed at a concentration of 8 μg/ml ([38]). The collection comprised 143 clinical isolates collected from 2005 and 2018.
(§4) The in vitro antibacterial activity of the β-lactams alone or in combination with the BLIs was determined in cation-adjusted Mueller-Hinton broth (CAMHB) microdilution assays according to CLSI recommendations ([51]). […]. The inocula for the broth microdilution assays were prepared by the broth culture method ([51]). […]

The subject of data set [11] is P. aeruginosa. Kind of data set: microbe, parasite or virus in culture. It counts as cell-based. The note with it: Pseudomonas aeruginosa, read-out: MIC.
Text: as §3, §4

The test system of data set [12] is K. pneumoniae. Kind of data set: microbe, parasite or virus in culture. The note with it: Klebsiella pneumoniae, read-out: MIC. It counts as cell-based.
Text: as §3, §4

The target of data set [13] is T2, KPC-2. The note with it: half-life of active-site occupancy.
Procedure: as §6, §5, §7
For data set [14], the system named is E. coli, K. pneumoniae, and P. aeruginosa reference type isolates. Briefly: MIC against panel of seven reference type isolates. The class given is cell-based. The protocol: […]. This panel encompassed 3 E. coli, 2 K. pneumoniae, and 2 P. aeruginosa isolates and included four quality control (QC) isolates for broth microdilution ([37]). […]. Among the β-lactamase-producing Enterobacterales isolates, E. coli NCTC 13353 producing CTX-M-15 and K. pneumoniae BAA-1705 producing KPC-2 are routine QC isolates used for the testing of cefepime-taniborbactam ([37]). […].
as §4

Data set [15] has as its system E. coli DH5α producing individual β-lactamases. Briefly: Broth microdilution MIC in engineered strains (BLI fixed at 4 μg/ml). It counts as cell-based, Escherichia coli. The note with it: panel of 34 strains. As for the experimental part: The spectrum of antibacterial activity of cefepime-taniborbactam and the breadth of inhibitory activity of this next-generation cyclic boronate BLI were assessed in 34 engineered E. coli strains each overproducing an individual β-lactamase and directly compared to those of the clinically approved agent ceftazidime-avibactam. In this manner, the antibacterial activity of the BL-BLI combinations relative to that of the partnered cephalosporins alone provided a quantitative measure of β-lactam potentiation that directly reflects the levels of inhibition of β-lactamase function achieved by addition of BLI. The BLI concentration was fixed at 4 μg/ml, as described in Materials and Methods.
The isogenic strains were used to establish a spectrum of inhibitory activity against 34 β-lactamases that were engineered into E. coli DH5α cells carrying chromosomal AmpC (ESC-1), a non-ESBL enzyme unable to hydrolyze these third- or fourth-generation cephalosporins. […]. The DNA fragments containing the promoter, the signal sequence, and each β-lactamase-coding gene were synthesized and cloned into pTwist Chlor High Copy in DH5α at Twist Bioscience. The individual expression plasmids along with their GenBank accession numbers are listed in Table S2 in the supplemental material and below. The protein sequences of β-lactamases were obtained from the Beta-Lactamase DataBase (www.bldb.eu) ([47]). Expression of the β-lactamases was confirmed by verifying decreased susceptibility to example test antibiotics that are known substrates of the enzymes. E. coli DH5α carrying pTU501, which expressed only the TEM-1 signal sequence from the bla promoter, was used as a control. The plasmid sequences are available through GenBank (Table S2).
as §4

The target in data set [16] is T3, CTX-M-15 (Escherichia coli, UniProt Q9EXV5). The note with it: half-life of active-site occupancy.
T3 sequence (Q9EXV5 29-291, species assumed): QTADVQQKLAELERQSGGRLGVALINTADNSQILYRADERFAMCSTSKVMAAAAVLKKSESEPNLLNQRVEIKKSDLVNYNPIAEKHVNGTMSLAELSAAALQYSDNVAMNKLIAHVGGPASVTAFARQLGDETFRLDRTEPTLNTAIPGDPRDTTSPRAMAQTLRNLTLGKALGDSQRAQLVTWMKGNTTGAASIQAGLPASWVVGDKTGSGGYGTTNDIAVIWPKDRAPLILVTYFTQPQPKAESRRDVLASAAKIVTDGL
Procedure: as §6, §5, §7
For data set [17], the target named is T3, CTX-M-15. Briefly: biochemical.
Procedure: as §6, §5, §7
Data set [18] relates to P. aeruginosa clinical isolates. Briefly: microbe, parasite or virus in culture. It counts as cell-based, Pseudomonas aeruginosa. As for the experimental part: as §1, §2
Data set [19] addresses NDM-1 (Klebsiella pneumoniae, UniProt C7C422). Briefly: Steady-state competitive inhibition, cefotaxime substrate.
The subject of data set [20] is VIM-2 and NDM-1 metallo-β-lactamases. Briefly: Inhibition of VIM-2 and NDM-1 MBLs (modality, reversibility, range). The note with it: up to 50 μM.
The test system of data set [21] is serine β-lactamases (SBLs). Briefly: Kinetic parameters and Ki, ranges over serine β-lactamases. The note with it: CTX-M-15, P99 AmpC, and KPC-2.
Procedure: as §6, §5, §7

NDM-1, sequence (C7C422 29-270, looked up, species assumed): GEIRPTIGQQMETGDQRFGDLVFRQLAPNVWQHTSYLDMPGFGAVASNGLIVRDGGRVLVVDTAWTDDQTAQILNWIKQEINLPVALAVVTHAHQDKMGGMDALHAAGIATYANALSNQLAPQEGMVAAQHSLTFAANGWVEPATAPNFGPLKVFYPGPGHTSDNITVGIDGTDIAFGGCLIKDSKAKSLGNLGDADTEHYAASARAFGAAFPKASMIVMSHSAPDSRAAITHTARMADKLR
SHV-5, sequence (P0A3M1 22-286): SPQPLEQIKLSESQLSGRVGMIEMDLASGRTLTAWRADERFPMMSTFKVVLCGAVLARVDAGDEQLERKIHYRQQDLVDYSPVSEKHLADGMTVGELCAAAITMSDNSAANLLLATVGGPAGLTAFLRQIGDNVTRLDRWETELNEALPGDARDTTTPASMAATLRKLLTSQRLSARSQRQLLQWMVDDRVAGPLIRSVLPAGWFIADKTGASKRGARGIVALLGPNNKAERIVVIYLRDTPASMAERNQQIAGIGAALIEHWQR

As to `NCCN[C@H]1CC[C@H](CC(=O)N[C@H]2Cc3cccc(C(=O)O)c3OB2O)CC1` [Taniborbactam], the Ki in data set [1] was 0.003 ± 0.0002 µM; in data set [2], 0.002 ± 0.0003 µM; in data set [3] it was 0.019 ± 0.001 µM; in data set [5], 0.004 ± 0.001 µM; in [8], not below 30 µM; in data set [9], 0.35 ± 0.007 µM. This compound also had a Ki in data set [17] of 0.017 ± 0.002 µM. Further, the “inhibition, off-target” value in data set [4] (128 of 129 in vitro assays) is listed as not above 23%. In data set [4] (the one exception, a β-lactamase), this compound came in with an inhibition of more than 50%. Besides, the t1/2 in data set [6] stood at 30 ± 3 min; in data set [13] it was 105 ± 5 min; in [16], 34 ± 2 min. Moreover, the MIC90 in data set [7] came out at 1 µg/mL; in [18] (Pseudomonas aeruginosa, all 41 isolates of P. aeruginosa) it was 4 µg/mL. The MIC was 512 µg/mL in data set [10] (ATCC25922, E. coli ATCC 25922, enzyme content None); 512 µg/mL in [10] (E. coli CDC-0452, NDM); 512 µg/mL in [10] (NCTC13353, E. coli NCTC 13353, CTX-M-15); 1020 µg/mL in data set [11] (ATCC27853, P. aeruginosa ATCC 27853, PDC-5); 1020 µg/mL in [11] (P. aeruginosa CDC-0457, VIM); 512 µg/mL in data set [12] (ATCC13883, K. pneumoniae ATCC 13883, enzyme content None). Besides, the MIC was 1020 µg/mL in [12] (BAA1705, K. pneumoniae BAA 1705, KPC-2) and not below 512 µg/mL in [14]. Further, the antibacterial activity alone result in [14] (taniborbactam alone) is recorded as “lacks antibacterial activity”. For the same compound, the “modal potentiation of partner cephalosporin MIC” value in [15] is 512 fold.

For the compound `NC(=O)[C@@H]1CC[C@@H]2CN1C(=O)N2OS(=O)(=O)O` [Avibactam], the Ki was 0.013 ± 0.0003 µM in data set [2]; more than 30 µM in data set [3]; more than 30 µM in [19]; more than 30 µM in data set [8]; 0.011 ± 0.001 µM in [17]. In addition, the figures for the t1/2 in data set [6], in data set [13] and in data set [16] were 249 ± 19 min, 66 ± 4 min and 29 ± 1 min, respectively. Further, in [20], the “inhibition of MBLs” value was “no significant inhibition”. In data set [15], the “modal potentiation of partner cephalosporin MIC” value turned out to be 64 fold.

Turning to `O=C(O)C[C@@H]1CC[C@H](NC(=O)Cc2cccs2)B(O)O1` [Vaborbactam], the Ki in data set [2] is 0.053 ± 0.004 µM; in [3], more than 30 µM; in data set [5] it was 0.022 ± 0.002 µM; in data set [19], more than 30 µM; in [8], more than 30 µM; in data set [9], 0.35 ± 0.007 µM. In data set [17], this compound displayed a Ki of 0.158 ± 0.006 µM. The koff in [2] was 0.00037 ± 3e-05 s⁻¹; in [5] it was 0.00054 ± 5e-05 s⁻¹; in data set [17], 0.0023 ± 9e-05 s⁻¹. Also, the kinact/KI stood at 1800 ± 100 M⁻¹ s⁻¹ in data set [2] (pH 7, read-out: k2/Ki); 1200 ± 100 M⁻¹ s⁻¹ in data set [5] (pH 7, read-out: k2/Ki); 1100 ± 100 M⁻¹ s⁻¹ in data set [17] (pH 7, read-out: k2/Ki). Further, the t1/2 in data set [6] came out at 32 ± 3 min; in [13], 21 ± 2 min; in data set [16] it was 5 ± 0.2 min. Also, the “inhibition of MBLs” value in data set [20] is “no significant inhibition”. Besides, the “second-order rate constants (k2/Ki), order of magnitude” value in data set [21] is on record as ~10^3 M^−1 s^−1.

For `C[C@]1(Cn2ccnn2)[C@H](C(=O)O)N2C(=O)C[C@H]2S1(=O)=O` [tazobactam], in data set [18] (14 isolates, subdivision 3), the “fold reduction of cefepime MIC90 by addition of BLI” value is 2 fold and the “fold reduction of ceftolozane MIC90 by addition of BLI” value is on record as 4 fold.
